Results reported in ChEMBL document CHEMBL3039007, “Structure-based identification of OATP1B1/3 inhibitors” (Mol Pharmacol, 2013).

Legend:
[1] = target: T1, Solute carrier organic anion transporter family member 1B1 (Homo sapiens, UniProt Q9Y6L6); conditions: chinese hamster, cho, 10 µM
T1 sequence (Q9Y6L6 whole entry): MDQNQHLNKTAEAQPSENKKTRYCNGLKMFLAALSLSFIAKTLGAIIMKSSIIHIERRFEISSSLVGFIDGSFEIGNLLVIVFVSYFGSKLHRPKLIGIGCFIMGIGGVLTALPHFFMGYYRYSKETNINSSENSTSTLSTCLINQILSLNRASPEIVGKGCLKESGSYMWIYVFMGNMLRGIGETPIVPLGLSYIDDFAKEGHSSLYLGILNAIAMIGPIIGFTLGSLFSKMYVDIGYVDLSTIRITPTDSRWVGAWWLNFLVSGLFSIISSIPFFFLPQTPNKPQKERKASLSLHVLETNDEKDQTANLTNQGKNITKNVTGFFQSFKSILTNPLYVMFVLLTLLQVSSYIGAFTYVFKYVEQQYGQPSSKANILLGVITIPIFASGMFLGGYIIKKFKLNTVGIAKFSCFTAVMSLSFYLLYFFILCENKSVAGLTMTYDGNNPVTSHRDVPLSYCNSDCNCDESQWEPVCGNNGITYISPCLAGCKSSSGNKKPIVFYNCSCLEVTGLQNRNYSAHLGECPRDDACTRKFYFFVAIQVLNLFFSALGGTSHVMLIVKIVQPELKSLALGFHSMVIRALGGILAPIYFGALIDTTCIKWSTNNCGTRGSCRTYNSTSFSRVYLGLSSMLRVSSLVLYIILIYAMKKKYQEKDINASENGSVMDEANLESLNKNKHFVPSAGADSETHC

[2] = target: T2, Solute carrier organic anion transporter family member 1B3 (Homo sapiens, UniProt Q9NPD5); conditions: chinese hamster, cho, 10 µM
T2 sequence (Q9NPD5 whole entry): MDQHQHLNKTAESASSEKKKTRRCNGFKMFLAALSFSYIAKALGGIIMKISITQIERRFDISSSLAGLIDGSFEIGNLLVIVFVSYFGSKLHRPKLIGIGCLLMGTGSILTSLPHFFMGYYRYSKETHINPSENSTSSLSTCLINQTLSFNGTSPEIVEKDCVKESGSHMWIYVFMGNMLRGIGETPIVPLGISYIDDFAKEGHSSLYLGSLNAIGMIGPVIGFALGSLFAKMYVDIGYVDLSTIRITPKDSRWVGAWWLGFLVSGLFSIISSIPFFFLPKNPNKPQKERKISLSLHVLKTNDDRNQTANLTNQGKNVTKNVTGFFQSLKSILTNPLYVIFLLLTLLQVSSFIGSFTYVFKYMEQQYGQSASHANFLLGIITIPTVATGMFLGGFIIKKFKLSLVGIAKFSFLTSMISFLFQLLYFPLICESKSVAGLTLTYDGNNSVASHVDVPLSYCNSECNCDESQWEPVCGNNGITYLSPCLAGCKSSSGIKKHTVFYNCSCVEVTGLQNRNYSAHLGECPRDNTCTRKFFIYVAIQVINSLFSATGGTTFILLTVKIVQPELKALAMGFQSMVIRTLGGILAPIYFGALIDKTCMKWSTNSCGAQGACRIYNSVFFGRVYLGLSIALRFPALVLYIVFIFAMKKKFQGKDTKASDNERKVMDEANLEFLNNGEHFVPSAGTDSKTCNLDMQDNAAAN

Row | SMILES | residual activity [1] [%] | residual activity [2] [%]
1 | CN[C@@H]1[C@H](O[C@H]2[C@H](O[C@H]3[C@H](O)[C@@H](O)[C@H](NC(=N)N)[C@@H](O)[C@@H]3NC(=N)N)O[C@@H](C)[C@]2(O)CO)O[C@@H](CO)[C@H](O)[C@H]1O.CN[C@@H]1[C@H](O[C@H]2[C@H](O[C@H]3[C@H](O)[C@@H](O)[C@H](NC(=N)N)[C@@H](O)[C@@H]3NC(=N)N)O[C@@H](C)[C@]2(O)CO)O[C@@H](CO)[C@H](O)[C@H]1O.O=S(=O)(O)O.O=S(=O)(O)O.O=S(=O)(O)O [DIHYDROSTREPTOMYCIN SULFATE] | 78.79 | 99.04
2 | NCC(CC(=O)O)c1ccc(Cl)s1 (centres undefined) [4-AMINO-3- (5-CHLOROTHIEN-2-YL)BUTANOIC ACID] | 116.9 | 99.7
3 | CON.Cl [METHOXYAMINE HYDROCHLORIDE] | 118.4 | 108.6
4 | Oc1cccc(O)c1 [RESORCINOL] | 89.71 | 104.2
5 | O=C(Nc1ccccc1)Nc1ccccc1 | 86.66 | 104.3
6 | COc1cc(OC)c2c(=O)c(-c3ccccc3)c(C)oc2c1OC [2-METHYL-5,7,8-TRIMETHOXYISOFLAVONE] | 115.1 | 98.52
7 | COc1ccc(C2C(=O)c3ccccc3C2=O)cc1 [ANISINDIONE] | 74.63 | 75.63
8 | C[C@]12CC[C@H](O)C[C@H]1CC[C@@H]1[C@@H]2[C@H](O)C[C@]2(C)[C@@H](C3=CC(=O)OC3)CC[C@]12O [SARMENTOGENIN] | 70.58 | 105.8
9 | CC(=O)N1CCCC1C(=O)O (centres undefined) [N-ACETYLPROLINE] | 88.69 | 109.9
10 | COc1cc2ccc(=O)oc2c2ccoc12 [SPHONDIN] | 127 | 102.5
11 | O=C(/C=C/c1ccc(O)c(O)c1)O[C@@H]1C[C@](O)(C(=O)O)C[C@@H](O)[C@H]1O [CHLOROGENIC ACID] | 105.9 | 103.1
12 | COC(=O)C[C@H]1C(C)(C)[C@@H](OC(C)=O)[C@@H]2CC3C4CC(=O)O[C@@H](c5ccoc5)[C@]4(C)CCC3[C@@]1(C)C2=O (some centres undefined) [DIHYDROFISSINOLIDE] | 71.88 | 77.17
13 | O=C(/C=C/c1ccccc1)c1ccc(O)cc1 [4'-HYDROXYCHALCONE] | 132.2 | 130.5
14 | COc1ccc2c3c([nH]c2c1)C(C)=NCC3 [HARMALINE] | 92.56 | 115.9
15 | COC(=O)c1cc(O)c(=O)c2c(O)c(O)ccc2c1 [METHYL 7-DESHYDROXYPYROGALLIN-4-CARBOXYLATE] | 48.16 | 80.24
16 | Nc1ncnc2c1ncn2[C@H]1C[C@H](O)[C@@H](CO)O1 [DEOXYADENOSINE] | 112.3 | 106.4
17 | COc1c2c(cc3c1OCO3)CC[N+](C)=C2.[Cl-] [COTARNINE CHLORIDE] | 85.95 | 93.29
18 | C[N+](C)(C)CCO.[Cl-] [CHOLINE CHLORIDE] | 93.68 | 113.2
19 | C[C@]12CC[C@@H]3c4ccc(O)cc4CC[C@H]3[C@@H]1CC[C@@H]2OC(=O)CCC1CCCC1 [ESTRADIOL CYPIONATE] | 81.59 | 90.49
20 | CO/N=C(\C(=O)N[C@@H]1C(=O)N2C(C(=O)[O-])=C(COC(N)=O)CS[C@H]12)c1ccco1.[Na+] [CEFUROXIME SODIUM] | 64.47 | 83.34
21 | C=C1[C@H]2CC[C@@]3(C)[C@H](c4ccoc4)OC(=O)C[C@]13O[C@H]1C[C@H](O)C(C)(C)[C@H](CC(=O)OC)[C@]12C [3-DEOXY-3beta-HYDROXYANGOLENSIC ACID METHYL ESTER] | 50.95 | 59.13
22 | Nc1ccc(S(=O)(=O)Nc2ccccn2)cc1 [SULFAPYRIDINE] | 73.46 | 105.2
23 | COc1ccc2c(=O)cc(-c3ccccc3OC)oc2c1 [7,2'-DIMETHOXYFLAVONE] | 95.82 | 110.5
24 | COc1cc2c(cc1OC)C(=O)OC2 [METAMECONINE] | 92.42 | 95.41

Row | SMILES | residual activity [1] [%] | residual activity [2] [%]
25 | N#Cc1ccc2c(c1)N(CCCN1CCC(O)CC1)c1ccccc1S2 [PERICIAZINE] | 132.5 | 117.1
26 | CC[C@H]1CN2CC[C@H]1C[C@@H]2[C@@H](O)c1ccnc2ccc(OC)cc12 [HYDROQUINIDINE] | 77.48 | 96.11
27 | O=C1CCCN1CC#CCN1CCCC1 [OXOTREMORINE] | 95.24 | 82.72
28 | COC(=O)Nc1nc2ccc(C(=O)c3cccs3)cc2[nH]1 [NOCODAZOLE] | 105.9 | 95.15
29 | COc1c2ccoc2cc2oc(=O)ccc12 [BERGAPTEN] | 93.84 | 97.44
30 | CC[C@]12CCCN3CCc4c(n(c5ccccc45)C(=O)C1)[C@@H]32 [VINBURNINE] | 97.38 | 115.3
31 | CCn1cc(C(=O)O)c(=O)c2cc(F)c(N3CCNCC3)nc21 [ENOXACIN] | 111.1 | 89.58
32 | C[C@H]1C(=O)CC[C@@H]2[C@]1(C)CC[C@H]1[C@@]2(C)CC[C@@]2(C)[C@@H]3CC(C)(C)CC[C@]3(C)CC[C@]12C [FRIEDELINE] | 112 | 90.31
33 | CC(=O)OC(C)C[N+](C)(C)C.[Cl-] (centres undefined) [METHACHOLINE CHLORIDE] | 86.62 | 106.9
34 | C[C@H](N)CO [L-ALANINOL] | 73.39 | 104
35 | COc1ccc2c(=O)c(CC(=O)O)coc2c1 [ANHYDROBRAZILIC ACID] | 56.09 | 76.12
36 | CC(C)(C#N)O[C@@H]1O[C@H](CO)[C@@H](O)[C@H](O)[C@H]1O [LINAMARIN] | 131.3 | 97.67
37 | O=c1cccc2n1C[C@@H]1C[C@H]2CN2CCCC[C@H]12.[O-][Cl+3]([O-])([O-])O | 88.32 | 98.01
38 | Cc1c(Cl)cccc1Nc1ccccc1C(=O)O [TOLFENAMIC ACID] | 95.07 | 77.01
39 | CC1(C)C=Cc2cc3ccc(=O)oc3cc2O1 [XANTHYLETIN] | 75.53 | 85.95
40 | O=C1c2c(O)cccc2C([C@@H]2O[C@H](CO)[C@@H](O)[C@H](O)[C@H]2O)c2cc(CO)cc(O)c21 (some centres undefined) [ALOIN] | 48.46 | 66.8
41 | N#C/C(=C\c1cccc(O)c1)C(=O)O [alpha-CYANO-3-HYDROXYCINNAMIC ACID] | 102.6 | 89.69
42 | CC(C)CCC[C@@H](C)[C@H]1CC[C@H]2[C@@H]3CC[C@@H]4C[C@H](O)CC[C@]4(C)[C@H]3CC[C@]12C [EPICOPROSTEROL] | 90.49 | 97.38
43 | CCCCC(CC)CN1CN(CC(CC)CCCC)CC(C)(N)C1 (centres undefined) [HEXETIDINE] | 75.93 | 102.1
44 | O=C1CN(/N=C/c2ccc(-c3ccc([N+](=O)[O-])cc3)o2)C(=O)[N-]1.[Na+] [DANTROLENE SODIUM] | 111.7 | 114.3
45 | NCCCC(=O)O [GAMMA-AMINOBUTYRIC ACID] | 56.63 | 81.28
46 | C[C@@H]1C[C@H](O)[C@@]2(O)[C@]13CC(=O)OC[C@]2(C)[C@@](C)(O)C(=O)C3 | 95.73 | 109.4
47 | COc1ccc2c(C)cc(=O)oc2c1 [HYMECROMONE METHYL ETHER] | 109.2 | 127.1
